For one experiment, the target named is T1, mouse TGR5 receptor (Mus musculus, UniProt Q80SS6).
T1 construct: expressed in transfected cells; host or cells: HEK293-EBNA (293 c18, ATCC CRL10852), Hygromycin B selection
T1 sequence (Q80SS6 1-329): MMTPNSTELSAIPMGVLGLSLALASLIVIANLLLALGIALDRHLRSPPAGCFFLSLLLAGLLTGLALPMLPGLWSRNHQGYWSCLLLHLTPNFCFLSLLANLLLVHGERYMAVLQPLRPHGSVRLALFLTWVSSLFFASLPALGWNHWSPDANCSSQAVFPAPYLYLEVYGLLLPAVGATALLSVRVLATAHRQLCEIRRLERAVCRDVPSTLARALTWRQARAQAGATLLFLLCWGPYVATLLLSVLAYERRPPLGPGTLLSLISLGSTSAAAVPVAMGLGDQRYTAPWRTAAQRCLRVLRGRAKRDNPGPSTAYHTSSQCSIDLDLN
The experiment is described as follows: Mouse TGR5 cAMP production assay (HTRF, Cisbio cAMP HiRange). Type of experiment: cell-based. The following applies: HEK293-EBNA cells overexpressing mouse TGR5, HTRF cAMP HiRange; coded A-D. The text has this:
Mouse TGR5 cAMP Production Assay
We evaluated compounds of the present invention for their ability to induce cAMP production in HEK-EBNA cells overexpressing the mouse TGR5 receptor. Human embryonic kidney cells (HEK293-EBNA) stably expressing mouse TGR5 receptor were established using the following procedure. Specifically, a commercially-obtained gene encoding mouse TGR5 (accession number BC116914) from Thermo Scientific (Waltham, Mass.) was cloned into an episomal expression vector. The resulting expression plasmid was then transfected into 293 c18 (ATCC® CRL10852™) cells, which express the Epstein-Barr virus nuclear antigen EBNA1 and can support the replication of episomal vectors. Selection for the plasmid was maintained with Hygromycin B. Cells were cultured and maintained in DMEM (Sigma; cat #6429) supplemented with 10% Fetal Bovine Serum, 1% penicillin/streptomycin, 2 mM L-alanine L-glutamine (GlutaMax), and 250 μg/mL Hygromycin.
2. HTRF cAMP Production Assay
In this second cAMP production assay, the cAMP production was measured in 384-well low volume plates (Greiner; cat #784075) using the Cisbio™ cAMP HiRange HTRF Assay Kit (Cisbio) according to the manufacturer's protocol.
Briefly, compounds were initially diluted in 100% DMSO (12-point serial dilution by half logs) in a 96-well plate and then were further diluted 1:50 in PBS containing 10 mM HEPES. 5 μL were transferred to the 384-well assay plate in duplicate. HEK293-EBNA cells stably overexpressing mouse TGR5 were harvested using non-enzymatic cell dissociation buffer (Sigma), spun down, then resuspended in serum-free DMEM with 500 μM IBMX at a density of 500,000 cells/mL. 5 μL of cell suspension was transferred to each well of the 384-well assay plate already containing compound. The plate was covered and incubated at room temperature for 1 hour. The d2-cAMP and anti-cAMP Ab-cryptate stock solutions were prepared as per kit instructions. Then 5 μL of each conjugate (d2 and cryptate) were added to each well of the assay plate. The plate was covered and incubated at room temperature for 1 hour. The plate was read on an Envision™ plate reader (Perkin Elmer).
(§1) In Table 33, EC50 values for both human and mouse cells were determined according to the TGR5 cAMP assays described above.
(Changes in cAMP serve as a functional read-out for many G protein-coupled receptors.)

The target in the next experiment is T2, human TGR5 receptor (Homo sapiens, UniProt Q8TDU6).
T2 construct: host or cells: CHO-K1 (hTGR5-CHO cells)
T2 sequence (Q8TDU6 1-330): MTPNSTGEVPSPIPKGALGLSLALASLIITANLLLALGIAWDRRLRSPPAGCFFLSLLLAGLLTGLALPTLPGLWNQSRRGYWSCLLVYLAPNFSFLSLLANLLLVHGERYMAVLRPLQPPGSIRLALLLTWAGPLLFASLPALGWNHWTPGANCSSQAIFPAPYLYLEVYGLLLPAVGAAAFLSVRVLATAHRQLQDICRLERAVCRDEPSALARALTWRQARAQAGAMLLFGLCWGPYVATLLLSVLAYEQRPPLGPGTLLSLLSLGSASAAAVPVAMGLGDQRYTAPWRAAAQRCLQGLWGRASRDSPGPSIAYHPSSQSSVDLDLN
The experiment is described as follows: Human TGR5 cAMP production assay. Type of experiment: cell-based. The following applies: human TGR5, luminescent cAMP assay; coded A-D; read-out: Human TGR5 Lum. cAMP Activity (EC50). The procedure: Human TGR5 cAMP Production Assay
We evaluated the Compounds of the present invention for their ability to induce cAMP production using CHO-K1 cells overexpressing the human TGR5 receptor. CHO-K1 cells stably expressing human TGR5 receptor (accession number NM_001077194.1 (hTGR5) (i.e., hTGR5-CHO cells) were purchased from DiscoveRx Corporation (Fremont, Calif.). hTGR5-CHO cells were grown in Ham's F-12 media supplemented with 10% Fetal Bovine Serum, 1% Penicillin-Streptomycin, 2 mM L-Alanine L-Glutamine (Glutamax), and 800 μg/mL Geneticin selection. The cAMP production assay was performed using DiscoveRx's cAMP XS+ kit (Catalog No. 90-0075XL) following the manufacturer's recommended protocol. Briefly, hTGR5-CHO cells were harvested using non-enzymatic cell dissociation buffer (Sigma-Aldrich, St. Louis, Mo.) and 1×10^6 cells were combined in Phosphate-Buffered Saline (PBS) to a final volume of 496 μL to which 4 μL of 125 mM IBMX (Sigma-Aldrich, St. Louis, Mo.) was added. 500 μL of cAMP antibody solution was added to the harvested cells and incubated at room temperature for 20 min.
Test compounds were serially diluted (half-log dilutions) in DMSO and then further diluted 1:50 in PBS, 10 mM HEPES buffer. 2 μL of serially diluted compound was added to a 384-well low volume plate (Greiner; cat #784075) and centrifuged briefly. 2 μL of the cell/cAMP antibody mixture was then added to each compound-containing well and allowed to incubate at room temperature for one hour. Following incubation, the XS+ kits' ED/Lysis/CL Substrate Working Solution was prepared following the manufacturer's recommended protocol and 4 μL was added to each well of the plate. The plate was then incubated for one hour at room temperature. Following incubation, 4 μL of Enzyme Acceptor reagent was added to the plate and allowed to incubate overnight at room temperature. Luminescent signal was then detected using the Viewlux instrument (Perkin-Elmer, Waltham, Mass.).
as §1

The EC50 is the concentration giving half of the maximal effect. Consider `CCc1cnccc1-c1cccc([C@@H](C)NS(=O)(=O)c2ccccc2C(F)(F)F)c1` [Compound 5AS, (R)-N-(1-(3-(3-ethylpyridin-4-yl)phenyl)ethyl)-2-(trifluoromethyl)benzenesulfonamide], for which the figures for the EC50 at mouse TGR5 receptor and at human TGR5 receptor were 100 to 999 nM and less than 100 nM, respectively.

With `Cc1cnccc1-c1cccc([C@@H](C)NS(=O)(=O)c2ccccc2C(F)(F)F)c1` [Compound 5AT, (R)-N-(1-(3-(3-methylpyridin-4-yl)phenyl)ethyl)-2-(trifluoromethyl)benzenesulfonamide], the EC50 on mouse TGR5 receptor is 100 to 999 nM; at human TGR5 receptor, less than 100 nM.

In the case of `CC[C@H](NS(=O)(=O)c1ccccc1C(F)(F)F)c1cccc(-c2ccc3nccn3c2)c1` [Compound 5AX, (S)-N-(1-(3-(imidazo[1,2-a]pyridin-6-yl)phenyl)propyl)-2-(trifluoromethyl)benzenesulfonamide], the EC50 on mouse TGR5 receptor and at human TGR5 receptor was 1000 to 30000 nM in each case.

Consider `CC[C@H](NS(=O)(=O)c1cccc(C(F)(F)F)c1)c1cccc(-c2ccncc2C)c1` [Compound 5AY, (S)-N-(1-(3-(3-methylpyridin-4-yl)phenyl)propyl)-3-(trifluoromethyl)benzenesulfonamide], for which the 50% effective concentration (EC50) at mouse TGR5 receptor was 100 to 999 nM; at human TGR5 receptor, less than 100 nM.

As to `Cc1cnccc1-c1cccc([C@H](CC(=O)N(C)C)NS(=O)(=O)c2ccccc2C(F)(F)F)c1` [Compound 5BB, (S)-N,N-dimethyl-3-(3-(3-methylpyridin-4-yl)phenyl)-3-(2-(trifluoromethyl)phenylsulfonamido)propanamide], the EC50 on mouse TGR5 receptor and at human TGR5 receptor was 100 to 999 nM in each case.

As for `Cc1cnccc1-c1cccc([C@H](CCCC#N)NS(=O)(=O)c2ccccc2C(F)(F)F)c1` [Compound 5BC, (S)-N-(4-cyano-1-(3-(3-methylpyridin-4-yl)phenyl)-butyl)-2-(trifluoromethyl)benzenesulfonamide], the EC50 on mouse TGR5 receptor and on human TGR5 receptor was less than 100 nM in each case.

With `Cc1cnccc1-c1cccc(CCNS(=O)(=O)c2ccccc2C(F)(F)F)c1` [Compound 5BD, N-(3-(3-methylpyridin-4-yl)phenethyl)-2-(trifluoromethyl)benzenesulfonamide], the EC50 on mouse TGR5 receptor fell in the range of 1000 to 30000 nM; at human TGR5 receptor it was 100 to 999 nM.

Regarding `COC(=O)c1cnccc1-c1cccc(C(C)(C)NS(=O)(=O)c2ccccc2C(F)(F)F)c1` [Compound 6, Methyl 4-(3-(2-(2-(trifluoromethyl)phenylsulfonamido)propan-2-yl)phenyl)nicotinate], the EC50 is 1000 to 30000 nM on mouse TGR5 receptor and less than 100 nM at human TGR5 receptor.

For `Cc1cncnc1-c1cccc(C(C)(C)NS(=O)(=O)c2ccccc2C(F)(F)F)c1` [Compound 6AA, N-(2-(3-(5-methylpyrimidin-4-yl)phenyl)propan-2-yl)-2-(trifluoromethyl)benzenesulfonamide], the EC50 at mouse TGR5 receptor and at human TGR5 receptor was 1000 to 30000 nM each time.

As for `CN(C)c1cc(-c2cccc(C(C)(C)NS(=O)(=O)c3ccccc3C(F)(F)F)c2)ccn1` [Compound 6AB, N-(2-(3-(2-(dimethylamino)-pyridin-4-yl)phenyl)propan-2-yl)-2-(trifluoromethyl)benzenesulfonamide], the EC50 at mouse TGR5 receptor and at human TGR5 receptor was 1000 to 30000 nM throughout.

Regarding `CCc1cnccc1-c1cccc([C@H](CCCC#N)NS(=O)(=O)c2ccccc2C(F)(F)F)c1` [Compound 6AC, (S)-N-(4-cyano-1-(3-(3-ethylpyridin-4-yl)phenyl)butyl)-2-(trifluoromethyl)benzenesulfonamide], the EC50 at mouse TGR5 receptor and at human TGR5 receptor was less than 100 nM each time.

Consider `Cc1cnccc1-c1cccc(C(CCC#N)NS(=O)(=O)c2ccccc2C(F)(F)F)c1` (centres unmarked) [Compound 6AD, N-(3-cyano-1-(3-(3-methylpyridin-4-yl)phenyl)-propyl)-2-(trifluoromethyl)benzenesulfonamide], for which the EC50 on mouse TGR5 receptor is 100 to 999 nM; on human TGR5 receptor, less than 100 nM.

For `Cc1cnsc1-c1cccc([C@H](C)NS(=O)(=O)c2cccc(Cl)c2C)c1` [Compound 7AA, (S)-3-chloro-2-methyl-N-(1-(3-(4-methylisothiazol-5-yl)-phenyl)ethyl)benzenesulfonamide], the EC50 at mouse TGR5 receptor was greater than 30000 nM; on human TGR5 receptor, 1000 to 30000 nM.

As for `Cc1nccc(-c2cccc([C@H](C)NS(=O)(=O)c3cccc(Cl)c3C)c2)c1C` [Compound 7AB, (S)-3-chloro-N-(1-(3-(2,3-dimethylpyridin-4-yl)phenyl)ethyl)-2-methylbenzenesulfonamide], the EC50 at mouse TGR5 receptor is 1000 to 30000 nM; at human TGR5 receptor, 100 to 999 nM.

As to `Cc1cnccc1-c1cccc(C2(NS(=O)(=O)c3cccc(Cl)c3C)COC2)c1` [Compound 7AC, 3-chloro-2-methyl-N-(3-(3-(3-methylpyridin-4-yl)phenyl)oxetan-3-yl)benzenesulfonamide], the EC50 at mouse TGR5 receptor and at human TGR5 receptor was less than 100 nM throughout.

`Cc1cnccc1-c1cccc([C@H](C)NS(=O)(=O)c2cccc(Cl)c2C)c1` [Compound 7]: the EC50 at mouse TGR5 receptor and at human TGR5 receptor was less than 100 nM in each case.

On to `CC(=O)Nc1cc(-c2cccc(C(C)(C)NS(=O)(=O)c3cccc(C(F)(F)F)c3)c2)ccn1` [Compound 9, N-(4-(3-(2-(3-(trifluoromethyl)phenylsulfonamido)propan-2-yl)phenyl)pyridin-2-yl)acetamide], for which the EC50 on mouse TGR5 receptor and on human TGR5 receptor was 1000 to 30000 nM in each case.

On to `COc1cnccc1-c1cccc(C(C)(C)NS(=O)(=O)c2ccccc2N)c1` [Compound 10, 2-amino-N-(2-(3-(3-methoxypyridin-4-yl)phenyl)propan-2-yl)benzenesulfonamide], for which the EC50 at mouse TGR5 receptor and at human TGR5 receptor was 100 to 999 nM each time.

Turning to `Cc1cnccc1-c1cccc([C@H](C)NS(=O)(=O)c2ccccc2N)c1` [Compound 10AA, (S)-2-amino-N-(1-(3-(3-methylpyridin-4-yl)phenyl)ethyl)benzenesulfonamide], the EC50 on mouse TGR5 receptor fell in the range of 1000 to 30000 nM; on human TGR5 receptor it was 100 to 999 nM.

The record behind these values is US11236055B2 (Venenum Biodesign, LLC, priority 2016, dated 2022).
